Each structure is given as a SMILES string.

The series can be described thus: gradient 5% acetonitrile 3 min, to 50% in 2 min, to 85% in 15 min, held 3 min, 100 µL/min. To be noted: column: Zorbax Extend-C18 2.1 x 50 mm; eluents: water / acetonitrile, 0.1% formic acid. In a few lines: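 Retention times come from adduct peaks that were picked computationally and then checked by hand. The standards, pure and pooled in mixtures of ~100 molecules, were run on a Zorbax Extend-C18 column (2.1 × 50 mm, 1.8 μm) at 100 μL/min with water and acetonitrile, each with 0.1% formic acid. Detection was by quadrupole time-of-flight mass spectrometry in positive and negative ionization mode, with a dead volume of 40 μL and a dwell volume of 900 μL.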
`CNC(=O)c1cncc(OC(C)C)c1` came in with an RP-LC retention time of 610 s.
In the case of `Cc1nnc(C2CCCN(C(=O)c3ccccc3Cl)C2)s1` (stereo not given) it was 652 s.
As to `CCc1nc(N)n(CC(=O)Nc2ccc(OC)cc2)c(=O)c1C`, the RP-LC retention time was found to be 650 s.
In the case of `CCOc1ccccc1NC(=O)Cc1c(C)nn(-c2nc(-c3ccc(F)cc3)cs2)c1C` it was 1290 s; in that of `COc1ccc(C(=O)N2CCC(n3c(-c4ccco4)nc4cccnc43)C2)cc1OC` (stereo not given), 644 s; in that of `Cc1cc(=O)n(CC(=O)Nc2cccc(C#N)c2)c(N2CCc3ccccc3C2)n1`, 772 s.
In the case of `COc1ccc(Nc2c(-c3ccc4c(c3)OCO4)nc3cnccn23)cc1OC` it was 709 s; in that of `COc1ccc2nc(C(=O)N3CCCCC3)cc(Nc3ccc(F)c(F)c3)c2c1`, 720 s.
Regarding `CC(C)C(=O)N1CCCn2nc(-c3cccnc3)cc2C1`, the RP-LC retention time turned out to be 579 s.
As to `COc1cccc(Cn2cnc3c(-c4ccc(OC)c(OC)c4)csc3c2=O)c1`, the RP-LC retention time came out at 947 s.
With `Cc1ccc2nc(C(=O)NCc3cccs3)cn2c1`, the RP-LC retention time came out at 646 s.
In the case of `COc1ccc(-c2cc(C(=O)Nc3cc(C)cc(C)c3)nn2C2CCS(=O)(=O)C2)cc1` (stereo not given) it was 741 s; in that of `O=C(c1cccs1)N1CCN(c2cnn3c(C4CC4)nnc3c2)CC1`, 625 s.
The figure for `O=C(Cn1c(=O)c2cccn2c2ccc(F)cc21)NCCc1c[nH]c2ccccc12` is 834 s; for `CCOC(=O)c1noc2ncnc(Nc3cccc(F)c3)c12` it is 616 s; for `Cc1ccc(CNC(=O)c2cccc(CN3C(=O)C4CCCN4C(=O)c4ccccc43)c2)o1` (stereo not given) it is 757 s.
`O=S(=O)(c1ccccc1)N1CCc2nc(-c3ccccc3)ncc2C1` came in with an RP-LC retention time of 1010 s.
`O=C(C1CCCCC1)N1CCN(c2ccc(=O)n(-c3ccccc3)n2)CC1` gave an RP-LC retention time of 790 s.
The figure for `O=C(COc1ccc(F)c(F)c1)N1CCN(c2ncccc2-c2nnc(C3CC3)o2)CC1` is 822 s; for `Cn1nccc1-c1cccc(-c2noc(C3CC(=O)N(c4cccc(Cl)c4)C3)n2)c1` (stereo not given) it is 978 s.
The figure for `O=c1ccc(S(=O)(=O)N2CCOCC2)cn1Cc1ccc(F)cc1` is 759 s.
In the case of `COCCn1cc(CCNC(=O)Nc2ccccc2Br)c2cccnc21` it was 763 s.
With `CCn1c(=O)sc2cc(S(=O)(=O)N3CCC(C(=O)Nc4ccc(C)c(Cl)c4)CC3)ccc21`, the RP-LC retention time was 905 s.
`CCCc1c(C(=O)O)nnn1-c1ccc(OC)c(Cl)c1` returned an RP-LC retention time of 773 s.
The compound `CCOc1ccc(C(=O)NC(C)C(=O)Nc2nc3ccccc3[nH]2)cc1` (stereo not given) returned an RP-LC retention time of 640 s.
In the case of `CCc1cc(-c2csc(S(=O)(=O)N3CCN(c4cccc(Cl)c4)CC3)c2)on1` it was 1200 s.
In the case of `O=C(Cn1c(=O)oc2ccc(C(=O)N3CCCC3)cc21)NCCCc1ccccc1` it was 764 s; in that of `COCCn1nc2n(c1=O)CCC1(CC2)CCN(C(=O)C2CC=CC2)CC1`, 658 s; in that of `COc1ccc(S(=O)(=O)N2CCCC(C(=O)NCc3ccccn3)C2)cc1OC` (stereo not given), 604 s.
The figure for `CCCn1cc(C2=CCN(C(=O)Nc3ccc(OC)cc3)CC2)c2cccnc21` is 858 s; for `CCOc1cccc(-c2noc(-c3nn(-c4cccc(F)c4)ccc3=O)n2)c1` it is 978 s; for `Cc1nc(N2CCCC2)cc(N2CCN(C(=O)c3ccc(Br)o3)CC2)n1` it is 645 s.
For `O=C(Nc1ccccc1)N1CCC(n2cnc3ccc(Cl)cc3c2=O)CC1`, the RP-LC retention time was 782 s.
The figure for `CC1(C)CC(NC(=O)COc2ccc(Cl)cc2)CC(C)(C)N1` is 623 s.
The compound `CCN1CCc2c(sc(-n3cccc3)c2CNC(=O)Nc2cc(C)ccc2OC)C1` had an RP-LC retention time of 718 s.
With `CC1CCN(C(=O)c2ccc3c(c2)CCCN3S(C)(=O)=O)CC1`, the RP-LC retention time stood at 836 s.
In the case of `[O-]/[N+](=C\c1ccccc1)CC1(O)CCCCC1` it was 798 s; in that of `CCn1c(=O)oc2cc(-c3noc(-c4cc(F)ccc4F)n3)ccc21`, 1100 s.
In the case of `CCC(C)NC(=O)C1CCN(Cc2cc3ccccc3n2Cc2ccccc2Cl)CC1` (stereo not given) it was 784 s.
In the case of `Cc1cccc(OCc2nc(C)c(C(=O)Nc3nc(-c4ccc(Cl)cc4)cs3)s2)c1` it was 1360 s.
On to `CCn1c(CN2CCN(S(C)(=O)=O)CC2)nc2cc(NC(C)=O)ccc21`, for which the RP-LC retention time amounted to 588 s.
In the case of `CNc1nc(N2CCCCCC2)nc(-n2cnc(SC)n2)n1` it was 685 s.
The figure for `O=C1OC(Cc2ccccc2)C(c2ccccc2)C1=O` (stereo not given) is 976 s.
On to `CCCCc1nc(N2CCN(C(=O)c3ccco3)CC2)c(C#N)c2c1COC(C)(C)C2`, for which the RP-LC retention time is 1190 s.
`COc1ccccc1N1CCN(c2cc(SCC(=O)NCc3ccc(Cl)cc3)ncn2)CC1`: the RP-LC retention time turned out to be 1110 s.
`CC(C)S(=O)(=O)c1ccc(CC(=O)N2CCC(c3nnc(-c4ccco4)o3)CC2)cc1`: the RP-LC retention time was determined as 669 s.
The compound `Cc1ccc(CNC(=O)Cn2cccc2-c2nnc(C3CCC3)o2)cc1` came in with an RP-LC retention time of 904 s.
The figure for `O=C(NCc1ccc2c(c1)OCO2)C1CCCN(c2nnc3ccccn23)C1` (stereo not given) is 573 s.
In the case of `COc1cccc(N2CCN(S(=O)(=O)c3cc4[nH]c(=O)[nH]c4cc3C)CC2)c1` it was 758 s; in that of `O=C(Cn1cccc(-c2nc(-c3ccc(Br)cc3)no2)c1=O)NCCc1ccccc1`, 1060 s; in that of `CC(C(=O)NCCN1CCCCCC1)n1c(=O)c(C(F)(F)F)nc2ccccc21` (stereo not given), 713 s.
The figure for `CCN1C(=O)C2CCC(=O)N2c2ccc(C(=O)NC3CCCC3)cc21` (stereo not given) is 692 s.
`COc1ccc(-c2nc(C)cc3nn(CC(=O)NCc4ccccc4)c(=O)n23)cc1` gave an RP-LC retention time of 788 s.
As for `Cc1c(C(=O)Nc2ccccc2)cnc2nc(-c3ccncc3)nn12`, the RP-LC retention time was 594 s.
The figure for `Cc1nnc(-c2cn(CC(=O)NCc3cccc(Br)c3)c3ccccc23)o1` is 838 s; for `CCOc1ccc(NC(=O)Cn2c(N)nc(CC)cc2=O)cc1` it is 630 s.
In the case of `CCN1CCN(CCCNC(=O)C(C)n2c3ccccc3c3cnn(C)c(=O)c32)CC1` (stereo not given) it was 553 s; in that of `CCc1ccccc1NC(=O)Cn1ncc2c(c1=O)N(CC1CC1)C(=O)CS2`, 757 s.
In the case of `CC(=O)N(Cc1nn(C)c2c1CN(Cc1cccc(O)c1)CC2)c1ccccc1` it was 592 s; in that of `Cc1ccc(-c2csc(Cc3nc(-c4cccc(F)c4)no3)n2)cc1C`, 1360 s; in that of `O=C(Cn1cnc2nc(N3CCCC(C(=O)NC4CC4)C3)sc2c1=O)NC1CCCC1` (stereo not given), 628 s.
With `CCC(c1cccs1)N1C(=O)[C@H]2CN(S(=O)(=O)Cc3ccccc3F)C[C@H]2C1=O` (stereo not given in full), the RP-LC retention time came out at 1000 s.
As to `COc1ccc(-c2nc(-c3ccc4oc(C)nc4c3)no2)cn1`, the RP-LC retention time was determined as 1060 s.
The figure for `O=C(c1cc(-c2ccccc2)n(C2CCS(=O)(=O)C2)n1)N1CCCC1` (stereo not given) is 682 s; for `O=C(Nc1nnc2n1CCS2)c1ccc2c(c1)OCO2` it is 590 s.
The figure for `Cc1ccc(CNC(=O)Cn2nc3cc(-c4ccccc4)nc(C)n3c2=O)cc1` is 930 s.
`Clc1cccc(-c2noc(Cn3ccnc3)n2)c1` showed an RP-LC retention time of 636 s.
The figure for `CCCCNC(=O)C1CCC(=O)N(c2cc(OC)c(OC)c(OC)c2)C1c1ccc(OC)cc1` (stereo not given) is 709 s; for `COc1cc(C(C)=O)ccc1OCC(O)CN1CCN(c2ccccc2F)CC1` (stereo not given) it is 652 s.
The figure for `Cc1ccc(N2C=C(C(=O)N3CCOCC3)S(=O)(=O)c3ccc(F)cc32)cc1F` is 822 s; for `Brc1ccc(-c2ccc(CNCc3ccccn3)o2)cc1` it is 703 s; for `NC(=O)C1CCN(C2=NC(=O)/C(=C\c3ccc(-c4ccc(F)cc4)o3)S2)CC1` it is 671 s.
In turn, `Cn1c(C(=O)NCCCN2CCCC2=O)cc2c(-c3cccs3)nn(-c3ccccc3)c21` showed an RP-LC retention time of 831 s.
The figure for `CCOC(=O)N1CCN(c2ncc(S(=O)(=O)c3ccc(C)cc3)c(N)n2)CC1` is 875 s; for `O=C(NCCc1ccccn1)C1CC(=O)N(c2n[nH]c3cc(Br)ccc23)C1` (stereo not given) it is 600 s.
The figure for `Cc1nnc(-c2ccc(S(=O)(=O)N3CCOCC3)o2)o1` is 664 s; for `O=C(CSc1cc(-n2ccc(C(=O)NC3CC3)n2)ncn1)Nc1ccc2c(c1)OCO2` it is 714 s.
The compound `Cc1ccccc1-c1noc(CN2N=NC3C(=O)N(c4ccc(C(C)C)cc4)C(=O)C32)n1` (stereo not given) returned an RP-LC retention time of 1150 s.
On to `O=C(Cn1c(=O)n(-c2ccccc2)c2ncccc21)NCCN1CCOCC1`, for which the RP-LC retention time was 585 s.
The figure for `CCOC(=O)c1ccccc1NC(=O)CSc1ccc(-c2ccco2)nn1` is 524 s.
